Source: article PMC7026080, “Phenotypic high-throughput screening platform identifies novel chemotypes for necroptosis inhibition” (Cell Death Discovery, 2020)
pIC50: −log10 of the molar value.

Test system: L929 cells
Test: Cytotoxicity in L929 cells without TNF-α, 24 h, LDH release
Type: cell-based, murine
Details: Mus musculus, absence of TNF-α, toxicity, screening step 7, read-out: IC50 L929 (in vitro)
Method: The ability of compounds to interfere with specific steps of the necroptosis pathway, as well as inherent cytotoxicity and long-term necroptosis inhibitory effects were evaluated using in vitro necroptosis models (Fig. S1). Firstly, the 110 compounds were tested for their ability to modulate TNF-α-induced MLKL phosphorylation, a key necroptotic effector downstream of RIPK3[13]. […] Membrane integrity was evaluated by both AK and LDH release to exclude potential false positives.
Whole cell extracts were analysed by immunoblotting. […] Data represent mean values ± SEM of three independent experiments normalized to untreated control. Cell viability was assessed using a colorimetric-based readout for LDH release.
Whole cell extracts were analysed by immunoblotting. Data shown are representative blots and quantification of p-MLKL/MLKL ratio from one single experiment, in fold-change from control. […] Data represent mean values ± SEM of three independent experiments normalized to untreated control. Cell viability was assessed using a colorimetric-based readout for LDH release. c In vitro screening results for seven selected compounds at different stages of the HTS cascade. TEXT PRINTED IN THE PICTURE: (C) Nec-1: EC50 [μM] L929 + TNF-α (in vitro): 1.25 (Screening Step: 1; Time Point: 8 h); EC50 [μM] L929 + TNF-α (in vitro): 1.13 (Screening Step: 7; Time Point: 24 h); EC50 [μM] […]

CN1C(=O)C(Cc2c[nH]c3ccccc23)NC1=S (centres unmarked) [Nec-1, necrostatin-1]
pIC50: < 4.00

O=C(c1cnn(Cc2ccccc2)c1)N1CCOc2ccccc2C1 [SN-6109]
pIC50: < 4.00
